Measured values published in patent US6768044B1, “Chimeric hydroxyl-phenyl pyruvate dioxygenase, DNA sequence and method for obtaining plants containing such a gene, with herbicide tolerance” (priority 2000, dated 2004).

B1: FAA: HPPD derived from Arabidopsis thaliana, used for comparison (protein, UniProt P93836 1-445, looked up)
4-hydroxyphenylpyruvate …: MGHQNAAVSENQNHDDGAASSPGFKLVGFSKFVRKNPKSDKFKVKRFHHIEFWCGDATNVARRFSWGLGMRFSAKSDLSTGNMVHASYLLTSGDLRFLFTAPYSPSLSAGEIKPTTTASIPSFDHGSCRSFFSSHGLGVRAVAIEVEDAESAFSISVANGAIPSSPPIVLNEAVTIAEVKLYGDVVLRYVSYKAEDTEKSEFLPGFERVEDASSFPLDYGIRRLDHAVGNVPELGPALTYVAGFTGFHQFAEFTADDVGTAESGLNSAVLASNDEMVLLPINEPVHGTKRKSQIQTYLEHNEGAGLQHLALMSEDIFRTLREMRKRSSIGGFDFMPSPPPTYYQNLKKRVGDVLSDDQIKECEELGILVDRDDQGTLLQIFTKPLGDRPTIFIEIIQRVGCMMKDEEGKAYQSGGCGGFGKGNFSELFKSIEEYEKTLEAKQLVG

Experiments:
[1] = test system: Pseudomonas fluorescens A32 HPPD; format: cell-based; conditions: E. coli culture containing vector pRP C; for end concentration giving identical results (total absence of staining): compound in DMSO solution
Source text: pRP C: The vector pRP A (which is described in the application WO 96/38567), which contains a genomic DNA fragment and the encoding region of the Pseudomonas fluorescens A32 HPPD gene, was digested with NcoI, purified and then ligated into the expression vector pKK233-2 (Clontech) which itself had been digested with NcoI, the only cloning site of this vector. The orientation of the gene in the resulting vector pRP C, which allows expression under-the control of the trc promoter, was checked.
(§1) A YT-broth-type culture medium with 1% agarose (Gibco BRL ultra pure) and 5 mM L-tyrosine (Sigma), which contains the selection agent for the above vector pRP C is poured into 96-well plates at 100 μl per well. 10 μl of an E. coli culture in the exponential growth phase which contains the vector pRP C is applied to each well.
A series was established with identical culture medium containing different concentrations (0 mM to 14 mM) of 2-cyano-3-cyclopropyl-l-(2-methylsulphonyl-4-trifluoromethylphenyl)-propane-i,3-dione (EP 0 496 631) which was solubilized in water and brought to pH 7.5. This molecule is a diketonitrile, known as an efficient inhibitor of HPPD activity (Pallett, K. E. et al. 1997. Pestic. Sci. 50, 83-84).
The end concentrations of the two molecules in DMSO solution are 3.5 mM and 7 mM, respectively.

[2] = test system: HPPD activity; assay: In vivo activity of chimeric HPPDs (brown staining of isolated colonies); format: cell-based, E. coli; conditions: scale from 1 to 10, 10 being the most intense, reflects HPPD activity
Description: as §1
The brown staining was scored on a scale from 1 to 10, 10 being the most intense (as described in Example 1), by comparison with HPPDs derived from Arabidopsis thaliana (FAA) and Daucus carota (FCC).

Molecule	end concentration giving identical results (total absence of staining) [1]	also measured
CCOc1c(S(=O)(=O)CC)ccc(C(=O)C2C(=O)CC(C)CC2=O)c1Cl (stereo not shown) [2-(2-chloro-3-ethoxy-4-(ethyl-sulphonyl)benzoyl)-5-methyl-1,3-cyclohexadione]	7 mM	
CSc1ccc(C(=O)C(C#N)C(=O)C2CC2)c(S(C)(=O)=O)c1 (stereo not shown) [2-cyano-3-cyclopropyl-1-(2-methylsulphonyl-4-(methylthio)phenyl)-propane-1,3-dione]	3.5 mM	
CS(=O)(=O)c1cc(C(F)(F)F)ccc1C(=O)C(C#N)C(=O)C1CC1 (stereo not drawn) [2-cyano-3-cyclopropyl-l-(2-methylsulphonyl-4-trifluoromethylphenyl)-propane-i,3-dione]		concentration at which a total absence of staining is observed ([1]; YT broth, 1% agarose, 5 mM L-tyrosine, 16 hours at 37° C., compound solubilized in water, pH 7.5, series 0 mM to 14 mM): 7 mM
B1		brown staining score [2]: 10
